Results: patent publication US6649610B1, “2-oxo-1, 4-benzoxazine compounds for treatment of tuberculosis” (priority 2001, dated 2003)

Legend:
[1] = tested on: M. tuberculosis ATCC 25177; test: BACTEC 460 radiometric growth inhibition bio-assay; type: cell-based, Mycobacterium tuberculosis; conditions: final concentration of 0.1 mg/ml; BACTEC 12B medium; growth index
white mice = test: Animal toxicity bioassay (acute toxicity, intraperitoneal); type: in vivo; conditions: intraperitoneal injection, observed 14 days
Protocol: (§1) Animal Toxicity Bioassay. Acute toxicity was studied on white mice of both sexes with weight ranging between 18-26 grams under intraperitoneal injection of 2% solution of tested compound in starch (the compound was dissolved in starch slime and injected) on the basis of 0.1 ml of solution per 10 g of the animal weight. Each dose was tested on the group of 6 animals that were observed during 14 day period. (This method was approved by the Pharmacology committee of Russian Ministry of Health and has been widely used since 1968.) Averaged lethal dose (LD50) of the compound was computed using results of experiments on 5-7 groups of animals using the method of Litchfield and Wilkinson. (Belenkii M. L. “Elements of quantative determination of the pharmacological effect,” Leningrad, 1963, 71 pages).

[2] = tested on: human and non-human myeloma; test: Activity against myeloma
[3] = Animal toxicity bioassay (acute toxicity, intraperitoneal); type: in vivo; conditions: both sexes, mouse, in vivo, ip; white mice, intraperitoneal injection, observed 14 days
Protocol: as §1

white mouse = conditions: intraperitoneal injection; cited from earlier work
man = conditions: cited from earlier work

Row | Compound | percent activity against Mycobacterium tuberculosis [1] | LD50 (white mice) | activity against human and non-human myeloma [2] | LD50 at 14 day [3] | LD50 (lethal dose 50 percent kill) (white mouse) | acute ingestion amount leading to mild toxicity (man; adults, acute ingestion) | ingestion amount that may be fatal (man; adults, acute ingestion) | ingestion amount usually fatal if not appropriately treated (man; adults, acute ingestion) | overall mortality rate for acute isoniazid toxicity (man; estimated) | hepatitis-related death rate (man; individuals who complete a full course of prophylaxis) | mortality rate (man; individuals who develop overt isoniazid-induced hepatitis) | LCL0 (lowest published lethal concentration) (man; man) | overall hepatitis-related death rate (man; patients using isoniazid prophylaxis)
1 | O=C(Oc1c(-c2nc3ccccc3oc2=O)c(=O)n2c(c1C(=O)c1ccccc1)c(=O)oc1ccccc12)c1ccccc1 [1F-18, 4-benzoyl-3-benzoyloxy-2-(2-oxo-2H-1,4-benzoxazin-3-yl)pyrido[2,1-c][1,4]benzoxazin-1,5-dione] | 95% | > 2000 mg/kg | 100% |  |  |  |  |  |  |  |  |  | 
2 | COc1ccc(C(=O)C(C(=O)Oc2c(C)cc(C)cc2C)=C2Nc3ccccc3OC2=O)cc1 [1F-19, 2,4,6-trimethylphenyl 2-(3,4-dihydro-2-oxo-2H-1,4-benzoxazin-3-ylidene)-3-p-methoxyphenyl-3-oxo-propanoate] | 97% |  |  | > 1000 mg/kg |  |  |  |  |  |  |  |  | 
3 | NNC(=O)c1ccncc1 [isoniazid, isonicotinic acid hydrazide] |  |  |  |  | 100 mg/kg | 1.5 g | 6 to 10 g | 15 g | 19% | 23.2-57.9 /100,000 | 10% | 100 mg/kg | approximately 0.001%
